Read-outs that look alike come from different tables or passages of the source.
Key:
[1] = Moisture absorption/retention test; type: physicochemical; details: for Increased weight ratio after 7 days at 35% RH (%) (B): following 65% RH; for (B)/(A) × 100(%): ratio of weight increase at 35% RH to that at 65% RH; for moisturizing power: compared with glycerol and sorbitol
Source text: About 1 g of each compound was precisely weighed in a weighing bottle and the weighed samples were placed in a constant-temperature and constant-humidity chamber (LH-30-10, manufactured by NAGANO SCIENCE CO, LTD.) in which the humidity was set to 65% RH to measure a weight increase ratio (A) after 7 days. Subsequently, the same samples were placed in the constant-temperature and constant-humidity chamber in which the humidity was set to 35% RH to measure a weight increase ratio (B) after 7 days. It can be considered that, as the ratio of (B) to (A) becomes higher, more moisture can be retained even when the environment becomes low humidity and thus that the compound having the higher value of the ratio can be considered as a compound having higher moisturizing power.

[2] = tested on: Human normal epidermal keratinocytes NHEK (NB); assay: Cytotoxicity test (Neutral Red, cell survival rate); type: cell-based; details: 500 μM, 24 hours; for Cell survival rate (%): relative to light absorbance of the control
Description: Human normal epidermal keratinocytes NHEK (NB) (manufactured by KURABO INDUSTRIES LTD.) were precultured with HuMedia-KG2 (manufactured by KURABO INDUSTRIES LTD.) and the precultured human normal epidermal keratinocytes were adjusted in a concentration of 15×10^4 cells/mL. After adjusting the concentration, 2 mL of the culture solution (that is, 30×10^4 cells/well) was poured to a plate having 6 wells and the poured culture solution was cultivated for 1 day. Samples (lauroyl-valine (Example 25: C12Val), decanoyl-valine (Example 26: C10Val), octanoyl-valine (Example 27: C8Val), hexanoyl-valine (Example 28: C6Val), butanoyl-valine (Example 29: C4Val), and acetyl-valine (Example 30: C2Val)) were added to the wells so that each of the samples has the concentration illustrated in respective graphs and the added samples were reacted for 24 hours. Thereafter, the culture medium was discarded and replaced with 2 mL/well of Neutral Red solution. The resultant sample was further cultured for 2 hours. As the Neutral Red solution, a solution prepared by diluting Neutral Red (manufactured by KURABO INDUSTRIES LTD.) with HuMedia-KG2 culture medium/normal saline solution (2:1) to 1/100 was used. The cells stained with the Neutral Red solution were washed with PBS (-) one time, thereafter fixed by 1.5 mL/well of 1% CaCl2/1% formalin solution, extracted by adding 1.5 mL/well of 1% acetic acid/50% ethanol solution at room temperature for 20 minutes. The light absorbance of the resultant sample was measured using a plate reader at 540/630 nm.
The following evaluation was carried out depending on the cell survival rates. The results are listed in Table 4 and illustrated in FIG. 6.

filaggrin gene = assay: Filaggrin gene expression test by acyl valines or acyl alanines (real time PCR, 24 hours); type: cell-based; details: Homo sapiens
Description: Human normal epidermal keratinocytes NHEK (NB) (manufactured by KURABO INDUSTRIES LTD.) were precultured with HuMedia-KG2 (manufactured by KURABO INDUSTRIES LTD.) and the precultured human normal epidermal keratinocytes were adjusted in a concentration of 15×10^4 cells/mL. After adjusting the concentration, 2 mL of the culture solution (that is, 30×10^4 cells/well) was poured to a plate having 6 wells and the poured culture solution was cultivated for 1 day. […] C12Ala), decanoyl-alanine (Example 21: C10Ala), octanoyl-alanine (Example 22: C8Ala), hexanoyl-alanine (Example 23: C6Ala), and butanoyl-alanine (Example 24: C4Ala)) were added to the wells so that each of the samples has the concentration illustrated in respective graphs and the added samples were reacted for 24 hours. After the reaction, entire RNA was extracted from the cells and subjected to reverse transcription. The amplified amounts of the target gene (filaggrin) were measured by real time PCR (n=2). […] GAPDH was used as a corrected gene. Calculation was carried out using a comparative CT method. TaqMan (registered trademark) Gene Expression was used as a primer and a probe and FAM was used as a fluorescent dye. The following evaluation was carried out depending on the amplified amounts. The results are listed in Table 2 and 3 and illustrated in FIGS. 4 and 5.

[3] = 10 μM, 24 hours, NHEK (NB), control = 100%, read-out: Amplified amount (%)
[4] = 10 μM, 24 hours, NHEK (NB), read-out: Evaluation (amplified amount)
[5] = 24 hours, NHEK (NB), control = 100%, read-out: Amplified amount (%)
[6] = 24 hours, NHEK (NB), read-out: Evaluation (amplified amount)

| SMILES | Evaluation (cell survival rate) [2] | Cell survival rate (%) [2] | activity at 500 µM (filaggrin gene; [5]) | activity at 500 µM (filaggrin gene; [6]) | other results |
| --- | --- | --- | --- | --- | --- |
| OCC(O)CO [Comparative Example 3, Glycerol, reference compound] | – | – | – | – | Increased weight ratio after 7 days at 35% RH (%) (B) [1]: 13.2%; Increased weight Ratio after 7 days at 65% RH (%) (A) [1]: 48.1%; (B)/(A) × 100(%) [1]: 27.4% |
| OC[C@@H](O)[C@@H](O)[C@H](O)[C@@H](O)CO [Comparative Example 4, Sorbitol, reference compound] | – | – | – | – | Increased weight ratio after 7 days at 35% RH (%) (B) [1]: 0.5%; Increased weight Ratio after 7 days at 65% RH (%) (A) [1]: 4.2%; (B)/(A) × 100(%) [1]: 12.0% |
| CCCCCCCC(=O)N[C@H](C(=O)[O-])C(C)C.[Na+] [Example 12, N-octanoyl-L-valine sodium salt] | – | – | – | – | Increased weight ratio after 7 days at 35% RH (%) (B) [1]: 8.4%; Increased weight Ratio after 7 days at 65% RH (%) (A) [1]: 25.4%; moisturizing power [1]: high moisturizing power; (B)/(A) × 100(%) [1]: 33.2% |
| CCCCCCCC(=O)N[C@@H](C)C(=O)[O-].[Na+] [Example 13, N-octanoyl-L-alanine sodium salt] | – | – | – | – | Increased weight ratio after 7 days at 35% RH (%) (B) [1]: 10.6%; Increased weight Ratio after 7 days at 65% RH (%) (A) [1]: 29.6%; moisturizing power [1]: high moisturizing power; (B)/(A) × 100(%) [1]: 35.9% |
| CCCCCCCCCCCC(=O)N[C@H](C(=O)O)C(C)C [Example 14, lauroyl-valine] | D (Lower than 50%) | 3% | – | – | cytotoxicity ([2]; in words): high; activity at 10 µM (filaggrin gene; [3]): 200%; activity at 10 µM (filaggrin gene; [4]): > 200% |
| CCCCCCCCCC(=O)N[C@H](C(=O)O)C(C)C [Example 15, decanoyl-valine] | B (75% or higher and lower than 99%) | 75% | – | – | activity at 10 µM (filaggrin gene; [3]): 171%; activity at 10 µM (filaggrin gene; [4]): 100 to 200% |
| CCCCCCCC(=O)N[C@H](C(=O)O)C(C)C [Example 16, octanoyl-valine] | A (99% or higher) | 100% | 302% | > 200% | – |
| CCCCCC(=O)N[C@H](C(=O)O)C(C)C [Example 17, hexanoyl-valine] | A (99% or higher) | 99% | 112% | 100 to 200% | – |
| CCCC(=O)N[C@H](C(=O)O)C(C)C [Example 18, butanoyl-valine] | A (99% or higher) | 102% | 126% | 100 to 200% | – |
| CC(=O)N[C@H](C(=O)O)C(C)C [Example 19, acetyl-valine] | A (99% or higher) | 105% | 141% | 100 to 200% | – |
| CCCCCCCCCCCC(=O)N[C@@H](C)C(=O)O [Example 20, lauroyl-alanine] | – | – | – | – | activity at 10 µM (filaggrin gene; NHEK, 24 h, read-out: Amplified amount (%)): 128%; activity at 10 µM (filaggrin gene; NHEK, 24 h, read-out: Evaluation (amplified amount)): 100 to 200% |
| CCCCCCCCCC(=O)N[C@@H](C)C(=O)O [Example 21, decanoyl-alanine] | – | – | – | – | activity at 10 µM (filaggrin gene; [3]): 117%; activity at 10 µM (filaggrin gene; [4]): 100 to 200% |
| CCCCCCCC(=O)N[C@@H](C)C(=O)O [Example 22, octanoyl-alanine] | – | – | 256% | > 200% | – |
| CCCCCC(=O)N[C@@H](C)C(=O)O [Example 23, hexanoyl-alanine] | – | – | 125% | 100 to 200% | – |
| CCCC(=O)N[C@@H](C)C(=O)O [Example 24, butanoyl-alanine] | – | – | 162% | 100 to 200% | – |
